System: 233499-124-R-J3-PDC complex spheroid viability, % test/control
Assay: Anticancer human tumor 233499-124-R-J3-PDC patient-derived colon adenocarcinoma cell line growth inhibition
Details: for IC50: curve of first compound; for viability, T/C: stronger effect = lower value
In short: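 Complex spheroids of tumor cells with HUVEC and human MSCs, exposed to iadademstat combined with other agents. Each agent tested in half-log steps from near clinical Cmax (else 10 microM top), DMSO ≤0.25%.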

[1] = second compound 0.1 µM, first compound 0.00949 µM
[2] = second compound 0.1 µM, first compound 0.03 µM
[3] = second compound 0.1 µM, first compound 0.0949 µM
[4] = second compound 0.1 µM, first compound 0.3 µM
[5] = second compound 0.316 µM, first compound 0.00949 µM
[6] = second compound 0.316 µM, first compound 0.03 µM
[7] = second compound 0.316 µM, first compound 0.0949 µM
[8] = second compound 0.316 µM, first compound 0.3 µM
[9] = second compound 1 µM, first compound 0.00949 µM
[10] = second compound 1 µM, first compound 0.03 µM
[11] = second compound 1 µM, first compound 0.0949 µM
[12] = second compound 1 µM, first compound 0.3 µM
[13] = second compound 3.16 µM, first compound 0.00949 µM
[14] = second compound 3.16 µM, first compound 0.03 µM
[15] = second compound 3.16 µM, first compound 0.0949 µM
[16] = second compound 3.16 µM, first compound 0.3 µM
[17] = second compound 10 µM, first compound 0.00949 µM
[18] = second compound 10 µM, first compound 0.03 µM
[19] = second compound 10 µM, first compound 0.0949 µM
[20] = second compound 10 µM, first compound 0.3 µM
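Further: spheroids exposed to agents for one week before readout.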

**Q.** Which results are given for `Nc1ncn(C2CC(O)C(CO)S2)c(=O)n1` (stereo not given) + NC1CC1c1ccc(-c2cccc(O)c2)cc1?
**A.** IC50 (second compound 0.1 µM): 100 nM; IC50 (second compound 0.316 µM): 102 nM; IC50 (second compound 1 µM): 124 nM; IC50 (second compound 3.16 µM): 128 nM; IC50 (second compound 10 µM): 81.5 nM; viability, T/C (second compound 0.1 µM, first compound 0.000949 µM): 95.5%; viability, T/C (second compound 0.1 µM, first compound 0.003 µM): 94.1%; viability, T/C [1]: 117%; viability, T/C [2]: 101%; viability, T/C [3]: 51.2%; viability, T/C [4]: 25.6%; viability, T/C (second compound 0.316 µM, first compound 0.000949 µM): 108%; viability, T/C (second compound 0.316 µM, first compound 0.003 µM): 96.7%; viability, T/C [5]: 114%; viability, T/C [6]: 114%; viability, T/C [7]: 51.2%; viability, T/C [8]: 31.5%; viability, T/C (second compound 1 µM, first compound 0.000949 µM): 85.7%; viability, T/C (second compound 1 µM, first compound 0.003 µM): 96.4%; viability, T/C [9]: 103%; viability, T/C [10]: 87%; viability, T/C [11]: 57.2%; viability, T/C [12]: 26.7%; viability, T/C (second compound 3.16 µM, first compound 0.000949 µM): 81%; viability, T/C (second compound 3.16 µM, first compound 0.003 µM): 86.9%; viability, T/C [13]: 85.8%; viability, T/C [14]: 89.1%; viability, T/C [15]: 58.4%; viability, T/C [16]: 26%; viability, T/C (second compound 10 µM, first compound 0.000949 µM): 80.2%; viability, T/C (second compound 10 µM, first compound 0.003 µM): 83.4%; viability, T/C [17]: 81.5%; viability, T/C [18]: 83.8%; viability, T/C [19]: 45%; viability, T/C [20]: 34.7%

**Q.** Which IC50 (second compound 0.1 µM) does the source give for `O=C(C=Cc1cccc(S(=O)(=O)Nc2ccccc2)c1)NO` + NC1CC1c1ccc(-c2cccc(O)c2)cc1 here?
**A.** > 3000 nM

**Q.** What about the IC50 (second compound 0.316 µM) of the same molecule?
**A.** > 3000 nM

**Q.** And the IC50 (second compound 1 µM)?
**A.** > 3000 nM

**Q.** What about the IC50 (second compound 3.16 µM) of the same molecule?
**A.** 908 nM

**Q.** And the IC50 (second compound 10 µM)?
**A.** 759 nM

**Q.** What about the viability, T/C [1] of the same molecule?
**A.** 108%

**Q.** And the viability, T/C [2]?
**A.** 134%

**Q.** What about the viability, T/C [3] of the same molecule?
**A.** 118%

**Q.** What about the viability, T/C [4] of the same molecule?
**A.** 113%

**Q.** And the viability, T/C (second compound 0.1 µM, first compound 0.949 µM)?
**A.** 14.4%

**Q.** What about the viability, T/C (second compound 0.1 µM, first compound 3 µM) of the same molecule?
**A.** 89.1%

**Q.** And the viability, T/C [5]?
**A.** 126%

**Q.** And the viability, T/C [6]?
**A.** 112%

**Q.** What about the viability, T/C [7] of the same molecule?
**A.** 124%

**Q.** What about the viability, T/C [8] of the same molecule?
**A.** 115%

**Q.** And the viability, T/C (second compound 0.316 µM, first compound 0.949 µM)?
**A.** 10.3%

**Q.** What about the viability, T/C (second compound 0.316 µM, first compound 3 µM) of the same molecule?
**A.** 97%

**Q.** What about the viability, T/C [9] of the same molecule?
**A.** 95.2%

**Q.** What about the viability, T/C [10] of the same molecule?
**A.** 109%

**Q.** And the viability, T/C [11]?
**A.** 113%

**Q.** What about the viability, T/C [12] of the same molecule?
**A.** 113%

**Q.** And the viability, T/C (second compound 1 µM, first compound 0.949 µM)?
**A.** 9.43%

**Q.** And the viability, T/C (second compound 1 µM, first compound 3 µM)?
**A.** 91.8%

**Q.** And the viability, T/C [13]?
**A.** 86%

**Q.** And the viability, T/C [14]?
**A.** 104%

**Q.** And the viability, T/C [15]?
**A.** 93.8%

**Q.** And the viability, T/C [16]?
**A.** 108%

**Q.** What about the viability, T/C (second compound 3.16 µM, first compound 0.949 µM) of the same molecule?
**A.** 7.54%

**Q.** And the viability, T/C (second compound 3.16 µM, first compound 3 µM)?
**A.** 88.7%

**Q.** And the viability, T/C [17]?
**A.** 86%

**Q.** What about the viability, T/C [18] of the same molecule?
**A.** 91.9%

**Q.** And the viability, T/C [19]?
**A.** 90.9%

**Q.** What about the viability, T/C [20] of the same molecule?
**A.** 109%

**Q.** What about the viability, T/C (second compound 10 µM, first compound 0.949 µM) of the same molecule?
**A.** 5%

**Q.** What about the viability, T/C (second compound 10 µM, first compound 3 µM) of the same molecule?
**A.** 73.7%

**Q.** What does the source list for `CC(C)c1c(-c2ccccc2)nc2c(C#N)c[nH]n2c1=O` + NC1CC1c1ccc(-c2cccc(O)c2)cc1?
**A.** IC50 (second compound 0.1 µM): > 10000 nM; IC50 (second compound 0.316 µM): > 10000 nM; IC50 (second compound 1 µM): > 10000 nM; IC50 (second compound 3.16 µM): > 10000 nM; IC50 (second compound 10 µM): > 10000 nM; viability, T/C (second compound 0.1 µM, first compound 0.0316 µM): 108%; viability, T/C (second compound 0.1 µM, first compound 0.1 µM): 117%; viability, T/C (second compound 0.1 µM, first compound 0.316 µM): 110%; viability, T/C (second compound 0.1 µM, first compound 1 µM): 100%; viability, T/C (second compound 0.1 µM, first compound 3.16 µM): 108%; viability, T/C (second compound 0.1 µM, first compound 10 µM): 104%; viability, T/C (second compound 0.316 µM, first compound 0.0316 µM): 100%; viability, T/C (second compound 0.316 µM, first compound 0.1 µM): 110%; viability, T/C (second compound 0.316 µM, first compound 0.316 µM): 109%; viability, T/C (second compound 0.316 µM, first compound 1 µM): 118%; viability, T/C (second compound 0.316 µM, first compound 3.16 µM): 117%; viability, T/C (second compound 0.316 µM, first compound 10 µM): 110%; viability, T/C (second compound 1 µM, first compound 0.0316 µM): 86.8%; viability, T/C (second compound 1 µM, first compound 0.1 µM): 93.6%; viability, T/C (second compound 1 µM, first compound 0.316 µM): 95.1%; viability, T/C (second compound 1 µM, first compound 1 µM): 92.8%; viability, T/C (second compound 1 µM, first compound 3.16 µM): 105%; viability, T/C (second compound 1 µM, first compound 10 µM): 116%; viability, T/C (second compound 3.16 µM, first compound 0.0316 µM): 87.6%; viability, T/C (second compound 3.16 µM, first compound 0.1 µM): 93.5%; viability, T/C (second compound 3.16 µM, first compound 0.316 µM): 97.3%; viability, T/C (second compound 3.16 µM, first compound 1 µM): 98.9%; viability, T/C (second compound 3.16 µM, first compound 3.16 µM): 114%; viability, T/C (second compound 3.16 µM, first compound 10 µM): 109%; viability, T/C (second compound 10 µM, first compound 0.0316 µM): 76.1%; viability, T/C (second compound 10 µM, first compound 0.1 µM): 78%; viability, T/C (second compound 10 µM, first compound 0.316 µM): 93.3%; viability, T/C (second compound 10 µM, first compound 1 µM): 101%; viability, T/C (second compound 10 µM, first compound 3.16 µM): 109%; viability, T/C (second compound 10 µM, first compound 10 µM): 114%

From PubChem BioAssay AID1918930 (Molecular Pharmacology Branch, DTP, NCI, 2023)
